Test results as given in patent US20180015065A1, “METHODS OF TREATING UREA CYCLE DISORDERS” (Horizon Therapeutics, LLC, priority 2013, published 2018).
“And” between values parts separate entries of the source, which are not always exact repeats. Identical values can stand only once. Like-named read-outs stand apart in the source and are kept apart here.

How the values were obtained:
[1] = Spot urinary PAGN level by BSA group, subjects 2 years of age and older; assay type: in vivo, human
Experimental: (§1) Subjects in Example 4 from all UCD studies and the healthy volunteer study (HPN-100-010) who were 2 years of age and older were divided into two groups based on their BSA: less than or equal to 1.3 m^2 (≦1.3 m^2) and greater than 1.3 m^2 (>1.3 m^2). Spot urine samples were collected from subjects at 24 hours (i.e., after an overnight fast), and urinary PAGN levels were measured.

[2] = Spot urinary PAGN level by BSA group, all UCD studies and healthy volunteer study HPN-100-010; assay type: in vivo, human; details: spot urine at 24 hours after overnight fast
Experimental: as §1, with “Subjects” for “Subjects in Example 4”, “(HPN-100-010)” for “(HPN-100-010) who were 2 years of age and older”

[3] = Spot urinary PAGN level by age group, all studies; assay type: in vivo, human; details: spot urine after overnight fast
Experimental: Subjects from all studies who had spot urine samples were divided into three age groups: less than 2 years of age; 2 to less than 6 years of age; and 6 years of age and older. Spot urine samples were collected from subjects after an overnight fast, and urinary PAGN levels were measured.

[4] = phase 1; dosages equivalent to the highest approved NaPBA dosage of 20 g/day; cited from earlier work
[5] = Spot urinary PAGN level by dose category, HPN-100-012 safety extension; assay type: in vivo, human; details: pediatric subjects under 6 years, spot urine at 0 hours after overnight fast
Experimental: Pediatric subjects under 6 years of age from the HPN-100-012 safety extension study were divided into three dosing groups: less than 6 mL/m^2, 6-10 mL/m^2, and greater than 10 mL/m^2. Spot urine samples were collected from subjects at 0 hours (i.e., after an overnight fast), and urinary PAGN levels were measured.

ammonia = details: cited from earlier work
[6] = BSA > 1.3 m^2, spot urine at 24 hours after overnight fast
[7] = BSA ≦ 1.3 m^2, spot urine at 24 hours after overnight fast

Structure (SMILES): O=C(CCCc1ccccc1)OCC(COC(=O)CCCc1ccccc1)OC(=O)CCCc1ccccc1 [HPN-100, glyceryl tri-[4-phenylbutyrate]]
- U-PAGN, 5th percentile [1, 6]: 3379.24 µg/mL
- U-PAGN, 10th percentile [1, 6]: 4078.79 µg/mL
- U-PAGN, 25th percentile [1, 6]: 5259 µg/mL and 5259.01 µg/mL
- U-PAGN, 75th percentile [1, 6]: 11916.08 µg/mL
- U-PAGN, 90th percentile [1, 6]: 15993.51 µg/mL
- U-PAGN, 95th percentile [1, 6]: 20320.32 µg/mL
- U-PAGN, maximum [1, 6]: 30304.04 µg/mL
- U-PAGN, mean [1, 6]: 9058.68 µg/mL
- U-PAGN, median [1, 6]: 7748.84 µg/mL
- U-PAGN, minimum [1, 6]: 1157.49 µg/mL
- U-PAGN, 5th percentile [1, 7]: 621.6 µg/mL
- U-PAGN, 10th percentile [1, 7]: 3479.50 µg/mL
- U-PAGN, 25th percentile [1, 7]: 7412 µg/mL and 7412.48 µg/mL
- U-PAGN, 75th percentile [1, 7]: 23635.08 µg/mL
- U-PAGN, 90th percentile [1, 7]: 29835.07 µg/mL
- U-PAGN, 95th percentile [1, 7]: 33943.83 µg/mL
- U-PAGN, maximum [1, 7]: 43372.15 µg/mL
- U-PAGN, mean [1, 7]: 16186.11 µg/mL
- U-PAGN, median [1, 7]: 15869.85 µg/mL
- U-PAGN, minimum [1, 7]: 119.5 µg/mL
- U-PAGN, 5th percentile ([2]; BSA > 1.3 m^2): 3379.24 µg/mL
- U-PAGN, 10th percentile ([2]; BSA > 1.3 m^2): 4078.79 µg/mL
- U-PAGN, 25th percentile ([2]; BSA > 1.3 m^2): 5259 µg/mL and 5259.01 µg/mL
- U-PAGN, 50th percentile ([2]; BSA > 1.3 m^2): 7748.84 µg/mL
- U-PAGN, 75th percentile ([2]; BSA > 1.3 m^2): 11916.08 µg/mL
- U-PAGN, 90th percentile ([2]; BSA > 1.3 m^2): 15993.51 µg/mL
- U-PAGN, 95th percentile ([2]; BSA > 1.3 m^2): 20320.32 µg/mL
- U-PAGN, maximum ([2]; BSA > 1.3 m^2): 30304.04 µg/mL
- U-PAGN, mean ([2]; BSA > 1.3 m^2): 9058.68 µg/mL
- U-PAGN, minimum ([2]; BSA > 1.3 m^2): 1157.49 µg/mL
- U-PAGN, 5th percentile ([2]; BSA ≦ 1.3 m^2): 1061.84 µg/mL
- U-PAGN, 10th percentile ([2]; BSA ≦ 1.3 m^2): 3645.97 µg/mL
- U-PAGN, 25th percentile ([2]; BSA ≦ 1.3 m^2): 8390 µg/mL and 8390.07 µg/mL
- U-PAGN, 50th percentile ([2]; BSA ≦ 1.3 m^2): 17075.13 µg/mL
- U-PAGN, 75th percentile ([2]; BSA ≦ 1.3 m^2): 25465.73 µg/mL
- U-PAGN, 90th percentile ([2]; BSA ≦ 1.3 m^2): 30830 µg/mL
- U-PAGN, 95th percentile ([2]; BSA ≦ 1.3 m^2): 35516.41 µg/mL
- U-PAGN, maximum ([2]; BSA ≦ 1.3 m^2): 44298.26 µg/mL
- U-PAGN, mean ([2]; BSA ≦ 1.3 m^2): 17547.48 µg/mL
- U-PAGN, minimum ([2]; BSA ≦ 1.3 m^2): 119.47 µg/mL
- U-PAGN, 10th percentile ([3]; age group 2-<6 years): 1717 µg/mL
- U-PAGN, 25th percentile ([3]; age group 2-<6 years): 5146 µg/mL
- U-PAGN, 75th percentile ([3]; age group 2-<6 years): 20603 µg/mL
- U-PAGN, 90th percentile ([3]; age group 2-<6 years): 27728 µg/mL
- U-PAGN, maximum ([3]; age group 2-<6 years): 43372 µg/mL
- U-PAGN, mean ([3]; age group 2-<6 years): 13420 µg/mL
- U-PAGN, median ([3]; age group 2-<6 years): 12114 µg/mL
- U-PAGN, minimum ([3]; age group 2-<6 years): 119 µg/mL
- U-PAGN, 10th percentile ([3]; age group <2 years): 3265 µg/mL
- U-PAGN, 25th percentile ([3]; age group <2 years): 8996 µg/mL
- U-PAGN, 75th percentile ([3]; age group <2 years): 25019 µg/mL
- U-PAGN, 90th percentile ([3]; age group <2 years): 28028 µg/mL
- U-PAGN, maximum ([3]; age group <2 years): 44298 µg/mL
- U-PAGN, mean ([3]; age group <2 years): 17330 µg/mL
- U-PAGN, median ([3]; age group <2 years): 17229 µg/mL
- U-PAGN, minimum ([3]; age group <2 years): 348 µg/mL
- U-PAGN, 10th percentile ([3]; age group ≧6 years): 1564 µg/mL
- U-PAGN, 25th percentile ([3]; age group ≧6 years): 4032 µg/mL
- U-PAGN, 75th percentile ([3]; age group ≧6 years): 13846 µg/mL
- U-PAGN, 90th percentile ([3]; age group ≧6 years): 21633 µg/mL
- U-PAGN, maximum ([3]; age group ≧6 years): 60960 µg/mL
- U-PAGN, mean ([3]; age group ≧6 years): 10103 µg/mL
- U-PAGN, median ([3]; age group ≧6 years): 7185 µg/mL
- U-PAGN, minimum ([3]; age group ≧6 years): 642 µg/mL
- Safety of administration [4]: established the safety
- Urinary PAGN, 10th percentile ([5]; dose 6-10 mL/m^2): 1288 µg/mL
- Urinary PAGN, 25th percentile ([5]; dose 6-10 mL/m^2): 3053 µg/mL
- Urinary PAGN, 75th percentile ([5]; dose 6-10 mL/m^2): 20796 µg/mL
- Urinary PAGN, 90th percentile ([5]; dose 6-10 mL/m^2): 24429 µg/mL
- Urinary PAGN, mean ([5]; dose 6-10 mL/m^2): 12313 µg/mL
- Urinary PAGN, median ([5]; dose 6-10 mL/m^2): 12144 µg/mL
- Urinary PAGN, 10th percentile ([5]; dose <6 mL/m^2): 643 µg/mL
- Urinary PAGN, 25th percentile ([5]; dose <6 mL/m^2): 1256 µg/mL
- Urinary PAGN, 75th percentile ([5]; dose <6 mL/m^2): 14290 µg/mL
- Urinary PAGN, 90th percentile ([5]; dose <6 mL/m^2): 20797 µg/mL
- Urinary PAGN, mean ([5]; dose <6 mL/m^2): 8353 µg/mL
- Urinary PAGN, median ([5]; dose <6 mL/m^2): 3298 µg/mL
- Urinary PAGN, 10th percentile ([5]; dose >10 mL/m^2): 264 µg/mL
- Urinary PAGN, 25th percentile ([5]; dose >10 mL/m^2): 6990 µg/mL
- Urinary PAGN, 75th percentile ([5]; dose >10 mL/m^2): 26247 µg/mL
- Urinary PAGN, 90th percentile ([5]; dose >10 mL/m^2): 28084 µg/mL
- Urinary PAGN, mean ([5]; dose >10 mL/m^2): 16842 µg/mL
- Urinary PAGN, median ([5]; dose >10 mL/m^2): 17089 µg/mL
- Mean ammonia values (ammonia; HPN-100-012 safety extension, pediatric UCD patients under six years): within normal limits
- Ammonia control compared with NaPBA (ammonia; phase 2 HPN-100-005, 11 pediatric UCD patients age six years and up, PBA equimolar dosage): at least equivalent to NaPBA
- Ammonia control compared with NaPBA (ammonia; phase 2 studies overall, equivalent dosages): at least equal to NaPBA
- Ammonia control compared with NaPBA (ammonia; phase 3 HPN-100-006, 45 adult UCD patients, PBA equivalent dosage): non-inferior to NaPBA
- Mean ammonia levels (ammonia; phase 3 extended dosing HPN-100-007 and HPN-100-005 safety extension, adult and pediatric UCD subjects): within normal limit
